The subject of data set [1] is NF-AT. Nature of the data set: Gel mobility shift assay of NF-AT DNA binding activity in extracts of treated Jurkat cells. The format is cell-based, human. On the procedure: Nuclear extracts were made according to the procedures of Ohlsson and Edlund (Cell 45:35 (1986)). Briefly, nuclei were extracted with 0.3 M (NH4)2SO4 and the fraction that contained the nuclear proteins was precipitated with 0.2 g/ml (NH4)2SO4 and dialyzed for 4 h. at 4° C. The NF-AT binding site of the IL-2 enhancer (−290 and −263) was used as a probe for binding activity. The binding experiment was carried out essentially as described in Shaw, J. P. Science 241:202-205 (1988)).
NFATZ Jurkat cells were pretreated with 100 μM anisoymycin (Sigma), a protein synthesis inhibitor, for 30 minutes before stimulating the cells. Conditions for activating the cells and preparing nuclear and cytoplasmic extracts are described in Example 3.
(§1) NFATZ Jurkat cells and JK12/90.1 cells (a gift from N. Shastri) were stimulated for 2 hours with 20 ng/ml PMA and 2 μM ionomycin. […] Nuclear extracts were prepared as described previously with modifications. Cytoplasmic extracts were made from the same cells as the nuclear extracts. Following lysis of the cells with buffer A [10 mM Hepes (pH 7.8), 15 mM Kcl, 2 mM MgCl2, 1 mM DTT, 0.1 mM EDTA, 0.1 mM PMSF] plus 0.05% NP-40, and pelleting of the nuclei, the cytoplasmic fraction was removed and stabilized with 10% (vol/vol) glycerol and 1/10 volume of buffer B [0.3 M Hepes (pH 7.8), 1.4 M Kcl, and 30 mM MgCl2]. The cytoplasmic extract was centrifuged at 200,000 g for 15 minutes. An equal volume of 3 M (NH4)2SO4 (pH 7.9) was added to the supernatant, and precipitated proteins were pelleted at 100,000 g for 10 minutes. The pelleted cytoplasmic proteins were resuspended in buffer C [50 mM Hepes (pH 7.8), 50 mM KCl, 1 mM DTT, 0.1 mM EDTA, 0.1 mM PMSF, 10% (vol/vol) glycerol] and desalted by passage over a P6DG column (BioRad). Protein concentrations were determined using a BioRad protein assay kit. To assess the completeness of the nuclear and cytoplasmic fractionation, we assayed for Oct-1 (a constitutive nuclear located DNA binding protein) binding activity and β-galactosidase (cytoplasmic localized) enzyme activity. […]

The subject of data set [2] is NFATZ Jurkat cells and JK12/90.1 cells. Nature of the data set: Toxic effects on the stimulated cells. The format is cell-based. The conditions noted are these: FK506 100 ng/ml or CsA 500 ng/ml, five minutes prior to PMA and ionomycin, 2 hours.
In data set [3] the test system is nuclear component of NF-AT. In words: Reconstitution of NF-AT binding: synthesis of the nuclear component. Format: cell-based, human. The note with it: PMA/ionomycin-stimulated cells. The method, then: as §1
Data set [4] deals with NF-AT. Nature of the data set: In vitro transcription directed by multimerized NF-AT binding sites (G-less) by nuclear extracts of treated Jurkat cells. The format is cell-based, human. The conditions noted are these: nuclear extracts of stimulated/FK506-treated cells, 10 ng/ml. The method, then: The effect of FK506 on the ability of NF-AT to direct transcription was tested by preparing nuclear extracts from stimulated or stimulated/FK506-treated cells and testing their ability to transcribe a G-less cassette in which transcription was dependent upon three NF-AT sites located within a synthetic promoter.
Promoter constructs, nuclear extracts and transcription reactions were prepared as described. NFATZ Jurkat cells, derived from a human T cell leukemia, were stimulated with […] PMA (Sigma), 2 μM ionomycin (Calbiochem) for 2 hours. FK506 was used at 10 ng/ml and added five minutes prior to the addition of PMA and ionomycin. […] Transcription was quantitated using a radioanalytic imaging system (AMBIS). […]
In general, transcription reactions (20 μl) contained 40 μg/ml of circular DNA template [400 ng of the test construct, 40 ng of the AdMLP G-less construct, and 360 ng of poly dI-dC (Pharmacia)] and between 3-5 mg/ml nuclear protein extract in a buffer containing 25 mM Hepes (pH 7.6), 50 mM KCl, 6 mM MgCl2, 0.6 mM each of ATP and CTP, 7 μM UTP, 7 μCi [a-^32P] […] The pellets were rinsed with 70% ethanol, air dried, and resuspended in 10 μl of loading dye (90% formamide, 0.01% xylene cyanol, and 0.01% bromophenol blue in 1×TBE.) The transcripts were analyzed on 6% denaturing polyacrylamide gels. […]

A further data set has as its system NF-ATc. Nature of the data set: Western blot mobility of epitope tagged NF-ATc expressed in Jurkat cells. The format is cell-based, human. The note with it: stimulated 2 hrs, whole cell lysates. On the procedure: Whole cell lysates were analyzed by western blotting as in FIG. 13.
The cDNA shown in FIG. 12 was fused to the Hemophilus influenza hemaglutinin (HA) 12 amino acid epitope tag in the determined reading frame and operably linked to the SRα promoter in the vector pBJ5 (Lin et al, 1990, Science 249:677-679). The resultant construct was transiently transfected by electroporation into Jurkat human T lymphocytes, and into Cos fibroblast cells. Expression of the epitope-tagged NF-ATc protein was determined by Western blotting of whole cell extracts prepared from the transfected cells, using an antibody (12CA5, Berkeley Antibody Co., CA) that detects the HA epitope.
Post-translational modification of NF-ATc was investigated in cells treated with agents that activate PKC or increase intracellular Ca++. […] Whole cell lysates were analyzed by western blotting as in FIG. 13. […] This is consistent with a dephosphorylation event, possibly by direct action of calcineurin (Clipstone and Crabtree (1992) Nature 357: 695-697), however, any of a large number of processes could produce the observed mobility changes. There is evidence that NF-ATp is a substrate for calcineurin, however, the mobility shifts produced by phosphatase treatment of NF-ATp or NF-ATc are far greater than those observed in FIG. 19. These observations indicate that NF-ATc is not a direct substrate of calcineurin.
In general terms: In western blotting, separated proteins are transferred to a membrane and probed.

The test system of the next data set is IL-2 promoter. In words: IL-2 enhancer/promoter luciferase reporter co-transfected with NF-ATc expression vector in Cos cells. Format: cell-based. The note with it: overexpression in Cos cells. The method, then: (§2) The NF-ATc cDNA was operably linked to a portion of the SV40 early gene promoter and the mV transcription regulatory regions in the pBJ vector. This expression vector was co-tranfected into Jurkat and Cos cells with either a) three copies of NF-AT binding site linked to and directing transcription of luciferase (results shown in FIGS. 14A and 14B) the entire IL-2 enhancer/promoter directing transcription of luciferase (results shown in FIG. 14B). Cytosolic extracts were prepared and luciferase assays carried out by standard procedures (de Wet et al, 1987, Mol. Cell. Biol. 7:724-[…]).
Background: A reporter such as luciferase makes a cellular process visible.

In the next data set the test system is NF-AT binding site. Nature of the data set: NF-AT luciferase reporter co-transfected with NF-ATc expression vector in Cos and Jurkat cells. The format is cell-based. The conditions noted are these: overexpression in Cos cells and Jurkat cells. On the procedure: as §2

As for `COc1ccc(C[C@H]2NC[C@H](O)[C@H]2OC(C)=O)cc1` [anisomycin], the “appearance of the NF-AT complex in activated T cells” value in the data set on NF-AT [1] (NFATZ Jurkat cells pretreated with 100 μM for 30 minutes before stimulation) is recorded as “completely blocked”. The “ability of cytoplasmic extracts from treated cells to reconstitute the NF-AT complex” value with NF-AT [1] (cytoplasmic extracts of cells grown with 100 μM protein synthesis inhibitor) was “able to reconstitute”.

Regarding `C=CC[C@@H]1/C=C(\C)C[C@H](C)C[C@H](OC)[C@H]2O[C@@](O)(C(=O)C(=O)N3CCCC[C@H]3C(=O)O[C@H](/C(C)=C/[C@@H]3CC[C@@H](O)[C@H](OC)C3)[C@H](C)[C@@H](O)CC1=O)[C@H](C)C[C@@H]2OC` [FK506], the “reduction of NF-AT DNA-binding activity in the extracts” value in the data set with NF-AT [1] (nuclear extracts of stimulated/FK506-treated cells, 10 ng/ml) lay within 50 to 80%. Moreover, the “toxic effects to the cells” value in data set [2] is given as “without any toxic effects”. For the same molecule, the “synthesis of the nuclear component of NF-AT” value in data set [3] was “did not inhibit”. Further, in the data set with NF-AT [4], the “reduction of in vitro transcription directed by multimerized NF-AT binding sites” value was found to be 2.5 fold.

As for `C[C@H](CCC(=O)O)C[C@H](C)C[C@H](C)C(=O)/C=C(\O)[C@H](C)C[C@H](C)C/C=C/[C@@H](C)[C@@H](O)[C@@H](C)[C@@H](O)C[C@@H]1CC[C@@](C)([C@H]2CC[C@@](C)([C@@H](C)O)O2)O1` [ionomycin], the “mobility of NF-ATc versus non-treated cells” value in the data set with NF-ATc is listed as “migrates faster”.

With `CCCCCCCCCCCCCC(=O)O[C@@H]1[C@@H](C)[C@@]2(O)[C@@H](C=C(CO)C[C@]3(O)C(=O)C(C)=C[C@@H]23)[C@@H]2C(C)(C)[C@]12OC(C)=O` [PMA, phorbol myristate acetate], in the data set with NF-ATc, the “mobility of NF-ATc versus non-treated cells” value is “slower migrating”.

B1: NF-ATc: human cytosolic NF-AT subunit, protein of 716 amino acids (SEQ ID NO: 38), expressed from cDNA (protein)
chain: MPSTSFPVPSKFPLGPAAAVFGRGETLGPAPRAGGTMKSAEEEHYGYASSNVSPALPLPTAHSTLPAPCHNLQTSTPGIIPPADHPSGYGAALDGCPAGYFLSSGHTRPDGAPALESPRIEITSCLGLYHNNNQFFHDVEVEDVLPSSKRSPSTATLSLPSLEAYRDPSCLSPASSLSSRSCNSEASSYESNYSYPYASPQTSPWQSPCVSPKTTDPEEGFPRGLGACTLLGSPQHSPSTSPRASVTEESWLGARSSRPASPCNKRKYSLNGRQPPYSPHHSPTPSPHGSPRVSVTDDSWLGNTTQYTSSAIVAAINALTTDSSLDLGDGVPVKSRKTTLEQPPSVALKVEPVGEDLGSPPPPADFAPEDYSSFQHIRKGGFCDQYLAVPQHPYQWAKPKPLSPTSYMSPTLPALDWQLPSHSGPYELRIEVQPKSHHRAHYETEGSRGAVKASAGGHPIVQLHGYLENEPLMLQLFIGTADDRLLRPHAFYQVHRITGKTVSTTSHEAILSNTKVLEIPLLPENSMRAVIDCACILKLRNSDIELRKGETDIGRKNTRVRLVFRVHVPQPSGRTLSLQVASNPIECSQRSAQELPLVEKQSTDSYPVVGGKKMVLSGHNFLQDSKVIFVEKAPDGHHVWEMEAKTDRDLCKPNSLVVEIPPFRNQRITSPVHVSFYVCNGKRKRSQYQRFTYLPANGNAIFLTVSREHERVGCFF
modifications: human
As to B1, the “activation of the IL-2 promoter” value with IL-2 promoter was “activates”. Further, in the data set with NF-AT binding site, the “enhancement of NF-AT-dependent transcription” value was 50-1000 fold.
